This experiment has as its system B6C3F1 mice, colon carcinoma 38 s.c., T/C. Briefly: NCI In Vivo Anticancer Drug Screen. Data for tumor model Colon Carcinoma 38 (subcutaneous) in B6C3F1 mice. The protocol:
The antitumor activity of compounds was measured in mice bearing transplantable tumors. Survival or tumor size were measured and the results are expressed as the measurement made in the treated group (T) divided by the measurement made in the vehicle treated control group (C). The tumor model used in this assay is Colon Carcinoma 38 (subcutaneous) in B6C3F1 mice

The mark [1] stands for this setting: endpoint: median tumor weight (est.), dose: 200.0 mg/kg/injection, schedule: Q07DX002 (ip), vehicle: saline, higher = larger tumour.

Several values for one entry are separate records, joined by “and”; a condition that tells them apart may be missing. Identical values can stand only once. Records with an inconclusive call do not appear.

As to `CCC1=C2C(=O)c3ccccc3C2=C(C)S(=O)(=O)O1`, for the setting “endpoint: median tumor weight (est.), dose: 6.25 mg/kg/injection, schedule: Q07DX002 (ip), vehicle: saline with Tween-80, higher = larger tumour”, the T/C was 153 % of control.

Regarding `Cc1cc(N/N=C/c2ccccn2)nc2ccccc12`, the T/C by setting is: (endpoint: median tumor weight (est.), dose: 50.0 mg/kg/injection, schedule: Q07DX002 (ip), vehicle: Klucel (hydroxypropylcellulose) (HPC), higher = larger tumour) 65 % of control; (endpoint: median tumor weight (est.), dose: 100.0 mg/kg/injection, schedule: Q07DX002 (ip), vehicle: Klucel (hydroxypropylcellulose) (HPC), higher = larger tumour) 90 % of control; (endpoint: median tumor weight (est.), dose: 200.0 mg/kg/injection, schedule: Q07DX002 (ip), vehicle: Klucel (hydroxypropylcellulose) (HPC), higher = larger tumour) 74 % of control.

For `CCn1cnc2c(=S)nc[nH]c21`, the T/C reads like this: (endpoint: median tumor weight (est.), dose: 50.0 mg/kg/injection, schedule: Q07DX002 (ip), vehicle: saline, higher = larger tumour) 85 % of control; (endpoint: median tumor weight (est.), dose: 50.0 mg/kg/injection, schedule: Q07DX002 (ip), vehicle: suspension in saline, higher = larger tumour) 92 % of control; (endpoint: median tumor weight (est.), dose: 100.0 mg/kg/injection, schedule: Q07DX002 (ip), vehicle: saline, higher = larger tumour) 73 % of control; (endpoint: median tumor weight (est.), dose: 100.0 mg/kg/injection, schedule: Q07DX002 (ip), vehicle: suspension in saline, higher = larger tumour) 58 % of control; under setting [1], 55 % of control; (endpoint: median tumor weight (est.), dose: 200.0 mg/kg/injection, schedule: Q07DX002 (ip), vehicle: suspension in saline, higher = larger tumour) 16 % of control. Further, the T/C (endpoint: median tumor weight (est.), dose: 400.0 mg/kg/injection, schedule: Q07DX002 (ip), vehicle: saline, higher = larger tumour) is 1 % of control.

Turning to `CCCCCC(O)C1C(=O)OC(C)C(O)/C=C/C=C/C=C/C=C\C=C(\C)C(O)CC(O)CC(O)CC(O)CC(O)CC(O)CC1O` (stereo not drawn), the T/C was 81 % of control (endpoint: median tumor weight (est.), dose: 6.25 mg/kg/injection, schedule: Q07DX002 (ip), vehicle: water, higher = larger tumour); 103 % of control (endpoint: median tumor weight (est.), dose: 12.5 mg/kg/injection, schedule: Q07DX002 (ip), vehicle: water, higher = larger tumour); 77 % of control (endpoint: median tumor weight (est.), dose: 25.0 mg/kg/injection, schedule: Q07DX002 (ip), vehicle: water, higher = larger tumour); 69 % of control (endpoint: median tumor weight (est.), dose: 50.0 mg/kg/injection, schedule: Q07DX002 (ip), vehicle: water, higher = larger tumour); 62 % of control (endpoint: median tumor weight (est.), dose: 100.0 mg/kg/injection, schedule: Q07DX002 (ip), vehicle: water, higher = larger tumour).

On to `C#CCNC1=C(C)C(=O)C2=C(C1=O)[C@H](COC(N)=O)[C@]1(OC)[C@@H]3N[C@@H]3CN21`, for which the T/C reads like this: (endpoint: median tumor weight (est.), dose: 1.5 mg/kg/injection, schedule: Q07DX002 (ip), vehicle: distilled water + Tween-80, higher = larger tumour) 50 % of control; (endpoint: median tumor weight (est.), dose: 3.0 mg/kg/injection, schedule: Q07DX002 (ip), vehicle: distilled water + Tween-80, higher = larger tumour) 60 % of control; (endpoint: median tumor weight (est.), dose: 6.0 mg/kg/injection, schedule: Q07DX002 (ip), vehicle: distilled water + Tween-80, higher = larger tumour) 36 % of control; (endpoint: median tumor weight (est.), dose: 12.0 mg/kg/injection, schedule: Q07DX002 (ip), vehicle: distilled water + Tween-80, higher = larger tumour) 9 % of control.

Regarding `CS(=O)(=O)OCCCCOS(C)(=O)=O`, under “endpoint: median tumor weight (est.), dose: 50.0 mg/kg/injection, schedule: Q01DX006 (ip), vehicle: saline with Tween-80, higher = larger tumour”, the T/C was 16 % of control.

`CCN(CC)CCOC(=O)Cc1cccc2c(=O)cc(-c3ccccc3)oc12`: the T/C is 101 % of control (endpoint: median survival time, dose: 3.12 mg/kg/injection, schedule: Q01DX001 (iv), vehicle: saline, higher = longer survival); 102 % of control (endpoint: median survival time, dose: 3.12 mg/kg/injection, schedule: Q07DX002 (iv), vehicle: saline, higher = longer survival); 102 % of control (endpoint: median survival time, dose: 6.25 mg/kg/injection, schedule: Q01DX001 (iv), vehicle: saline, higher = longer survival); 106 % of control (endpoint: median survival time, dose: 6.25 mg/kg/injection, schedule: Q07DX002 (iv), vehicle: saline, higher = longer survival); 92 % of control (endpoint: median survival time, dose: 15.82 mg/kg/injection, schedule: Q07DX002 (iv), vehicle: saline, higher = longer survival); 101 % of control (endpoint: median survival time, dose: 21.09 mg/kg/injection, schedule: Q01DX001 (iv), vehicle: saline, higher = longer survival). Besides, the T/C is, setting by setting: (endpoint: median survival time, dose: 21.09 mg/kg/injection, schedule: Q07DX002 (iv), vehicle: saline, higher = longer survival) 96 % of control; (endpoint: median survival time, dose: 25.0 mg/kg/injection, schedule: Q07DX002 (iv), vehicle: saline, higher = longer survival) 87 % of control; (endpoint: median survival time, dose: 28.13 mg/kg/injection, schedule: Q01DX001 (iv), vehicle: saline, higher = longer survival) 100 % of control; (endpoint: median survival time, dose: 28.13 mg/kg/injection, schedule: Q07DX002 (iv), vehicle: saline, higher = longer survival) 121 % of control; (endpoint: median survival time, dose: 37.5 mg/kg/injection, schedule: Q01DX001 (iv), vehicle: saline, higher = longer survival) 92 % of control; (endpoint: median survival time, dose: 37.5 mg/kg/injection, schedule: Q07DX002 (iv), vehicle: saline, higher = longer survival) 110 % of control. The T/C (endpoint: median survival time, dose: 50.0 mg/kg/injection, schedule: Q01DX001 (iv), vehicle: saline, higher = longer survival) was 96 % of control; the T/C (endpoint: median survival time, dose: 112.5 mg/kg/injection, schedule: Q01DX001 (ip), vehicle: saline, higher = longer survival) was 89 % of control; the T/C (endpoint: median survival time, dose: 112.5 mg/kg/injection, schedule: Q07DX002 (ip), vehicle: saline, higher = longer survival) was 90 % of control and 120 % of control; the T/C (endpoint: median survival time, dose: 150.0 mg/kg/injection, schedule: Q01DX001 (ip), vehicle: saline, higher = longer survival) is 96 % of control and 99 % of control; the T/C (endpoint: median survival time, dose: 150.0 mg/kg/injection, schedule: Q07DX002 (ip), vehicle: saline, higher = longer survival) is 167 % of control and 218 % of control; the T/C (endpoint: median survival time, dose: 200.0 mg/kg/injection, schedule: Q07DX002 (ip), vehicle: saline, higher = longer survival) was 220 % of control and 238 % of control. The T/C by setting is: (endpoint: median survival time, dose: 266.7 mg/kg/injection, schedule: Q01DX001 (ip), vehicle: saline, higher = longer survival) 171 % of control and 176 % of control; (endpoint: median survival time, dose: 266.7 mg/kg/injection, schedule: Q07DX002 (ip), vehicle: saline, higher = longer survival) 220 % of control and 238 % of control; (endpoint: median survival time, dose: 355.6 mg/kg/injection, schedule: Q01DX001 (ip), vehicle: saline, higher = longer survival) 220 % of control and 232 % of control; (endpoint: median tumor weight (est.), dose: 21.09 mg/kg/injection, schedule: Q07DX002 (iv), vehicle: saline, higher = larger tumour) 86 % of control; (endpoint: median tumor weight (est.), dose: 26.7 mg/kg/injection, schedule: Q03HX024 (ip), vehicle: saline, higher = larger tumour) 115 % of control; (endpoint: median tumor weight (est.), dose: 28.13 mg/kg/injection, schedule: Q01DX001 (iv), vehicle: saline, higher = larger tumour) 77 % of control and 89 % of control. For the same molecule, the T/C reads like this: (endpoint: median tumor weight (est.), dose: 35.6 mg/kg/injection, schedule: Q03HX024 (ip), vehicle: saline, higher = larger tumour) 155 % of control; (endpoint: median tumor weight (est.), dose: 35.6 mg/kg/injection, schedule: Q06HX016 (ip), vehicle: saline, higher = larger tumour) 86 % of control; (endpoint: median tumor weight (est.), dose: 37.5 mg/kg/injection, schedule: Q01DX001 (iv), vehicle: saline, higher = larger tumour) 107 % of control; (endpoint: median tumor weight (est.), dose: 47.5 mg/kg/injection, schedule: Q01DX008 (ip), vehicle: saline, higher = larger tumour) 79 % of control; (endpoint: median tumor weight (est.), dose: 47.5 mg/kg/injection, schedule: Q03HX006 (ip), vehicle: saline, higher = larger tumour) 117 % of control; (endpoint: median tumor weight (est.), dose: 47.5 mg/kg/injection, schedule: Q03HX024 (ip), vehicle: saline, higher = larger tumour) 83 % of control. Moreover, the T/C reads like this: (endpoint: median tumor weight (est.), dose: 47.5 mg/kg/injection, schedule: Q06HX016 (ip), vehicle: saline, higher = larger tumour) 75 % of control; (endpoint: median tumor weight (est.), dose: 50.0 mg/kg/injection, schedule: Q01DX001 (iv), vehicle: saline, higher = larger tumour) 50 % of control; (endpoint: median tumor weight (est.), dose: 63.3 mg/kg/injection, schedule: Q03HX006 (ip), vehicle: saline, higher = larger tumour) 63 % of control; (endpoint: median tumor weight (est.), dose: 63.3 mg/kg/injection, schedule: Q06HX016 (ip), vehicle: saline, higher = larger tumour) 93 % of control; (endpoint: median tumor weight (est.), dose: 84.4 mg/kg/injection, schedule: Q01DX008 (ip), vehicle: saline, higher = larger tumour) 111 % of control; (endpoint: median tumor weight (est.), dose: 84.4 mg/kg/injection, schedule: Q03HX006 (ip), vehicle: saline, higher = larger tumour) 63 % of control. Further, the T/C (endpoint: median tumor weight (est.), dose: 84.4 mg/kg/injection, schedule: Q06HX004 (ip), vehicle: saline, higher = larger tumour) is 75 % of control; the T/C (endpoint: median tumor weight (est.), dose: 84.4 mg/kg/injection, schedule: Q06HX016 (ip), vehicle: saline, higher = larger tumour) is 63 % of control; the T/C (endpoint: median tumor weight (est.), dose: 84.4 mg/kg/injection, schedule: Q07DX002 (ip), vehicle: saline, higher = larger tumour) is 60 % of control; the T/C (endpoint: median tumor weight (est.), dose: 112.5 mg/kg/injection, schedule: Q01DX008 (ip), vehicle: saline, higher = larger tumour) was 73 % of control; the T/C (endpoint: median tumor weight (est.), dose: 112.5 mg/kg/injection, schedule: Q03HX006 (ip), vehicle: saline, higher = larger tumour) was 18 % of control; the T/C (endpoint: median tumor weight (est.), dose: 112.5 mg/kg/injection, schedule: Q06HX004 (ip), vehicle: saline, higher = larger tumour) was 60 % of control. The T/C (endpoint: median tumor weight (est.), dose: 150.0 mg/kg/injection, schedule: Q06HX004 (ip), vehicle: saline, higher = larger tumour) is 54 % of control; the T/C (endpoint: median tumor weight (est.), dose: 200.0 mg/kg/injection, schedule: Q01DX001 (ip), vehicle: saline, higher = larger tumour) is 20 % of control and 22 % of control; the T/C (endpoint: median tumor weight (est.), dose: 200.0 mg/kg/injection, schedule: Q06HX004 (ip), vehicle: saline, higher = larger tumour) is 9 % of control; the T/C under setting [1] was 4 % of control and 9 % of control; the T/C (endpoint: median tumor weight (est.), dose: 266.7 mg/kg/injection, schedule: Q01DX001 (ip), vehicle: saline, higher = larger tumour) was 7 % of control and 13 % of control.

The values are drawn from PubChem BioAssay AID214 (DTP/NCI, 2004).
